Measured values reported in patent publication US20260130925A1, “METHODS FOR TREATING CANCER” (Genesis Molecular AI, Inc., priority 2022, published 2026).
pIC50: −log10 of the molar value.

Legend:
[1] = target: T1, PI3Kα H1047R in T47D cells (Homo sapiens, UniProt P42336, H1047R); experiment: PI3Kα cellular assay: T47D pAKT S473 HTRF; assay type: cell-based; settings: for T47D pAKT S473 HTRF IC50 (H1047R): T47D (H1047R) selectivity over SKBR3 (WT): T47D (H1047R) versus SKBR3 (WT) cells; for pIC50: T47D cells (H1047R), serum starved, 1 hr compound, 20 ng/ml EGF 10 min
T1 construct: endogenous in cells; host or cells: T47D
Description: PI3Kα cellular assay experimental procedure: SKBR3 or T47D cells are seeded in DMEM containing 10% FBS at 25 k cells/well into 96-well cell culture format. Cells are incubated overnight at 37° C. in a 5% CO2 incubator and the following day cell media is aspirated, adherent cells are washed 1× with room temperature PBS prior to serum-free media application. Cells are returned to 37° C. 5% CO2 incubator and incubated a further 16 hrs. Compounds are added to serum starved adherent cells with a top dose of 10,000 nM and 3× multiple dose reductions for a minimum dose of 0.5 nM diluted in DMSO. Cell/compound incubation continues for 1 hr in a 37° C., 5% CO2 incubator prior to 10 minute PIK3CA stimulation with 20 ng/ml EGF. Cells treated with 0.1% DMSO and 20 ng/mL EGF are employed as negative control, cells treated with 10 uM Alpelisib and 20 ng/mL EGF are employed as a positive control. After 10 mins, plates are removed from incubator and cells are lysed with buffer and shaking 45 minutes. 20 μL of lysate is transferred to an opti-384 plate and 2.5 μl of Phospho-AKT d2 antibody with 2.5 μl of Phospho-AKT Eu Cryptate solution in the detection buffer are added to each well. 384 well plate is left overnight at room temperature before reading HTRF on an Envision plate reader.

PI3K H1047R = PI3K H1047R (Homo sapiens, UniProt P42336, H1047R); experiment: PI3K H1047R ADP-Glo (PI/PS); assay type: biochemical; design: PI3K H1047R ADP-Glo (PI/PS) IC50: H1047R Selectivity: reference not given here; settings: for pIC50: PI/PS substrate
Chain of PI3K H1047R (P42336 whole entry H1047R): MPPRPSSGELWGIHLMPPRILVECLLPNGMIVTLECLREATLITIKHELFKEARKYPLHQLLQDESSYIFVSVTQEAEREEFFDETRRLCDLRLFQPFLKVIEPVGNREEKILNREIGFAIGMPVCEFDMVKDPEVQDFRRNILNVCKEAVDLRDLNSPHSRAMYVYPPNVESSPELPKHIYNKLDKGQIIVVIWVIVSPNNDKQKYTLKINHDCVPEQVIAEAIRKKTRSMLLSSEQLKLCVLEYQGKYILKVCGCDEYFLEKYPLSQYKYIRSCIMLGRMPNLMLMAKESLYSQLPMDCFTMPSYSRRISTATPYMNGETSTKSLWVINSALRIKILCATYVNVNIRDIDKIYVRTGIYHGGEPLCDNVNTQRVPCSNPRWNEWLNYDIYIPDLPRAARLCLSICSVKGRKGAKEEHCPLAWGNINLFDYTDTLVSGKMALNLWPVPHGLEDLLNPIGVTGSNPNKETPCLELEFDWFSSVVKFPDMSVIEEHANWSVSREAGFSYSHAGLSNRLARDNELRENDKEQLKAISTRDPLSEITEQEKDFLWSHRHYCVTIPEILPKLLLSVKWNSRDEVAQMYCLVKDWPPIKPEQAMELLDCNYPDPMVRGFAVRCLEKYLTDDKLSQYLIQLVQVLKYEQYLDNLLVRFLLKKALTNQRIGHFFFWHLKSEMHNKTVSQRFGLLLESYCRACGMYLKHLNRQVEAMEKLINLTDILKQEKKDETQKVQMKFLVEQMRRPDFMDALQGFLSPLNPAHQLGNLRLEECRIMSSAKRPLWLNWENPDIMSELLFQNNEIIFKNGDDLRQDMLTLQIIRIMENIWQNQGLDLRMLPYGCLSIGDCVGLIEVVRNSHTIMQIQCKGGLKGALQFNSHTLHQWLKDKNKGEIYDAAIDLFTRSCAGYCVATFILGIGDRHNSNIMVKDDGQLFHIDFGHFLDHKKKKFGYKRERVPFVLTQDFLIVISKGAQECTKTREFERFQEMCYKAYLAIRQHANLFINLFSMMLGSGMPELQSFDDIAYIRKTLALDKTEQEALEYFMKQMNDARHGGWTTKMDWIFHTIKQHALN
Chain of PI3K H1047R (P27986 whole entry partner): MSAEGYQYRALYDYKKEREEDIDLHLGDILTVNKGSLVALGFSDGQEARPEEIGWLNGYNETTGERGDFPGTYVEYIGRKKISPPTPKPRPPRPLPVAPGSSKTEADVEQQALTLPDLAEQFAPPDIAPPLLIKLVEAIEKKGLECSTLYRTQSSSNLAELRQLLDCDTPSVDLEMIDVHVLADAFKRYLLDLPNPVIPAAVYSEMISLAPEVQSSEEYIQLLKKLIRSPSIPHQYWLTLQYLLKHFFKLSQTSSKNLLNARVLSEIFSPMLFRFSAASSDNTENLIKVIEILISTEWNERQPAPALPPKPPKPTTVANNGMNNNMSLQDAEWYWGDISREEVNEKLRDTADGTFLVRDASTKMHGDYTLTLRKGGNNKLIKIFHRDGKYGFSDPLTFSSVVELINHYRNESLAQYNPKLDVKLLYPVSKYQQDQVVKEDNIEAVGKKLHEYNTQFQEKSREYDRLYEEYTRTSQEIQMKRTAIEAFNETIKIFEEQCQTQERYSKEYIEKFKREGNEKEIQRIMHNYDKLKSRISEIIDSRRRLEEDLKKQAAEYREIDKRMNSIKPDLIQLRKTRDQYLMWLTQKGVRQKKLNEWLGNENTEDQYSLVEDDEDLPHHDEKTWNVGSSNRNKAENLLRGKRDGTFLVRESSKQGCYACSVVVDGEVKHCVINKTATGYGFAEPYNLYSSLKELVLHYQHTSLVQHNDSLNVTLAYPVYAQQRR

T1 sequence (P42336 whole entry H1047R): as the sequence (P42336 whole entry H1047R) above
T1 sequence (P27986 whole entry partner): as the sequence (P27986 whole entry partner) above

T47D pAKT S473 HTRF IC50 (H1047R): T47D (H1047R) selectivity over SKBR3 (WT) [1] | pIC50 [1] | pIC50 (PI3K H1047R) | PI3K H1047R ADP-Glo (PI/PS) IC50: H1047R Selectivity (PI3K H1047R) | Compound
C (C denotes ≤5-fold) | ≤ 5.70 | ≤ 5.00 |  | Cc1cc([C@@H](C)Nc2ccccc2C(=O)O)c2nc(-c3ccc4c(c3)c(C)nn4C)n(C)c(=O)c2c1 [Compound 41]
A (A denotes >20-fold) | > 6.12 | > 6.00 | A (A denotes >20-fold) | Cc1cc(C(C)Nc2ccccc2C(=O)O)c2nc(-c3ccc4c(c3)c(C)nn4C)n(C)c(=O)c2c1 (stereo not drawn) [Compound 40]
C (C denotes ≤5-fold) | ≤ 5.70 | ≤ 5.00 | C (C denotes ≤5-fold) | Cc1cc([C@H](C)Nc2ccccc2C(=O)O)c2cc(-c3ccc4c(c3)c(C)nn4C)ncc2c1 [Compound 83]
A (A denotes >20-fold) | > 6.12 | > 6.00 | A (A denotes >20-fold) | Cc1cc(C(C)Nc2ccccc2C(=O)O)c2nc(-c3ccc(F)cc3)n(C)c(=O)c2c1 (stereo not drawn) [Compound 38]
A (A denotes >20-fold) | > 6.12 | > 6.00 | A (A denotes >20-fold) | Cc1cc([C@@H](C)Nc2ccccc2C(=O)O)c2cc(-c3ccc(F)cc3)n(C)c(=O)c2c1 [Compound 76]
A (A denotes >20-fold) | > 6.12 | > 6.00 | A (A denotes >20-fold) | Cc1cc(C(C)Nc2ccccc2C(=O)O)c2cc(-c3ccc4c(c3)c(C)nn4C)ncc2c1 (stereo not drawn) [Compound 88]
A (A denotes >20-fold) | > 6.12 | > 6.00 | A (A denotes >20-fold) | Cc1cc([C@H](C)Nc2ccccc2C(=O)O)c2cc(-c3ccnc(C4CC4)c3)n(C)c(=O)c2c1 [Compound 78]
A (A denotes >20-fold) | > 6.12 | > 6.00 | A (A denotes >20-fold) | Cc1cc([C@@H](C)Nc2ccccc2C(=O)O)c2cc(-c3ccc4c(c3)c(C)nn4C)ncc2c1 [Compound 84]
B (B denotes 20-fold≥value>5-fold) | ≤ 5.70 | 5.00 to 6.00 | C (C denotes ≤5-fold) | Cc1cc([C@H](C)Nc2ccccc2C(=O)O)c2cc(-c3ccc4c(c3)c(C)nn4C)n(C)c(=O)c2c1 [Compound 85]
C (C denotes ≤5-fold) | ≤ 5.70 | ≤ 5.00 |  | Cc1cc([C@@H](C)Nc2ccccc2C(=O)O)c2cc(-c3ccnc(C4CC4)c3)n(C)c(=O)c2c1 [Compound 79]
A (A denotes >20-fold) | > 6.12 | > 6.00 | A (A denotes >20-fold) | Cc1cc(C(C)Nc2ccccc2C(=O)O)c2cc(-c3ccc(F)cc3)n(C)c(=O)c2c1 (stereo not drawn) [Compound 77]
A (A denotes >20-fold) | > 6.12 | > 6.00 | B (B denotes 20-fold≥value>5-fold) | Cc1cc([C@H](C)Nc2ccccc2C(=O)O)c2nc(-c3ccc4c(c3)c(C)nn4C)n(C)c(=O)c2c1 (single isomer, unassigned) [Compound 33]
A (A denotes >20-fold) | > 6.12 | > 6.00 | A (A denotes >20-fold) | Cc1cc(C(C)Nc2ccccc2C(=O)O)c2cc(-c3ccnc(C4CC4)c3)n(C)c(=O)c2c1 (stereo not drawn) [Compound 82]
B (B denotes 20-fold≥value>5-fold) | 5.70 to 6.12 | ≤ 5.00 |  | Cc1cc([C@H](C)Nc2ccccc2C(=O)O)c2cc(-c3ccc(F)cc3)n(C)c(=O)c2c1 [Compound 75]

More lines, now with the values behind:

Compound | T47D pAKT S473 HTRF IC50 (H1047R): T47D (H1047R) selectivity over SKBR3 (WT) [1] | pIC50 [1] | pIC50 (PI3K H1047R) | PI3K H1047R ADP-Glo (PI/PS) IC50: H1047R Selectivity (PI3K H1047R)
Cc1cc([C@@H](C)Nc2ccccc2C(=O)O)c2cc(N3CCOCC3)ncc2c1 [Compound 57] | A (A denotes >20-fold) | > 6.12 | > 6.00 | A (A denotes >20-fold)
Cc1cc(C(C)Nc2ccccc2C(=O)O)c2nc(-c3cc(C)c4oc(=O)[nH]c4c3)ncc2c1 (stereo not drawn) [Compound 5] | B (B denotes 20-fold≥value>5-fold) | 5.70 to 6.12 | ≤ 5.00 | 
Cc1cc([C@H](C)Nc2ccccc2C(=O)O)c2cc(N3CCOCC3)ncc2c1 [Compound 58] | C (C denotes ≤5-fold) | ≤ 5.70 | ≤ 5.00 | 
Cc1cc(C(C)Nc2ccccc2C(=O)O)c2cc(-c3ccnc(C4CC4)c3)nc(C(N)=O)c2c1 (stereo not drawn) [Compound 73] | A (A denotes >20-fold) | > 6.12 | > 6.00 | A (A denotes >20-fold)
Cc1cc(C(C)Nc2ccccc2C(=O)O)c2cc(N3Cc4ccccc4C3)nc(O)c2c1 (stereo not drawn) [Compound 51] | A (A denotes >20-fold) | > 6.12 | > 6.00 | A (A denotes >20-fold)
Cc1cc(C(C)Nc2ccccc2C(=O)O)c2cc(N3CCOCC3)ncc2c1 (stereo not drawn) [Compound 37] | A (A denotes >20-fold) | > 6.12 | > 6.00 | A (A denotes >20-fold)
Cc1cc([C@H](C)Nc2ccccc2C(=O)O)c2nc(N3CCC(C)(C)CC3)nc(C#N)c2c1 [Compound 60] | C (C denotes ≤5-fold) | ≤ 5.70 | ≤ 5.00 | 
Cc1cc([C@@H](C)Nc2ccccc2C(=O)O)c2cc(N3Cc4ccccc4C3)ncc2c1 [Compound 81] | A (A denotes >20-fold) | > 6.12 | > 6.00 | A (A denotes >20-fold)
Cc1cc(C(C)Nc2ccccc2C(=O)O)c2[nH]c(N3CCOCC3)nc(=O)c2c1 (stereo not drawn) [Compound 19] | B (B denotes 20-fold≥value>5-fold) | 5.70 to 6.12 | 5.00 to 6.00 | B (B denotes 20-fold≥value>5-fold)
Cc1cc([C@H](C)Nc2ccccc2C(=O)O)c2cc(N3Cc4ccccc4C3)ncc2c1 [Compound 80] | C (C denotes ≤5-fold) | ≤ 5.70 | ≤ 5.00 | 
Cc1cc(C(C)Nc2ccccc2C(=O)O)c2cc(OC3CCOCC3)ncc2c1 (stereo not drawn) [Compound 74] | A (A denotes >20-fold) | > 6.12 | > 6.00 | A (A denotes >20-fold)
Cc1cc([C@@H](C)Nc2ccccc2C(=O)O)c2nc(N3CCC(C)(C)CC3)ncc2c1 [Compound 8] | A (A denotes >20-fold) | > 6.12 | > 6.00 | B (B denotes 20-fold≥value>5-fold)
Cc1cc(C(C)Nc2ccccc2C(=O)O)c2nc(N3CCC(C)(C)CC3)nc(C#N)c2c1 (stereo not drawn) [Compound 26, 2-((1-(4-cyano-2-(4,4-dimethylpiperidin-1-yl)-6-methylquinazolin-8-yl)ethyl)amino)benzoic acid] | C (C denotes ≤5-fold) | ≤ 5.70 | ≤ 5.00 | C (C denotes ≤5-fold)
Cc1cc(C(C)Nc2ccccc2C(=O)O)c2nc(N3CCC(C)(C)CC3)ncc2c1 (stereo not drawn) [Compound 10] | A (A denotes >20-fold) | > 6.12 | > 6.00 | A (A denotes >20-fold)
Cc1cc([C@@H](C)Nc2ccccc2C(=O)O)c2[nH]c(N3CCOCC3)nc(=O)c2c1 [Compound 18] | C (C denotes ≤5-fold) | ≤ 5.70 |  | 
Cc1cc([C@@H](C)Nc2ccccc2S(N)(=O)=O)c2nc(-c3cccnc3)n(C)c(=O)c2c1 [Compound 142] | A (A denotes >20-fold) | > 6.12 |  | 
Cc1cc(C(C)Nc2ccccc2C(=O)O)c2nc(N3Cc4ccccc4C3)nc(N3CC(O)C3)c2c1 (stereo not drawn) [Compound 63, 2-((1-(4-(3-hydroxyazetidin-1-yl)-2-(isoindolin-2-yl)-6-methylquinazolin-8-yl)ethyl)amino)benzoic acid] | B (B denotes 20-fold≥value>5-fold) | 5.70 to 6.12 |  | 
